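96-well plates; 48 h exposure; 5 concentrations. Endpoints by linear interpolation between flanking doses. Not reached: highest tested concentration assigned. Here, GI50 denotes the concentration required for 50% inhibition of growth.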 Active and inactive are the calls of the source. No stated cut-off is given here; in the data, active = GI50 up to about 1.1 µM and inactive = higher.
How the values were obtained:
Test in all cases: NCI anticancer screen, dose series, 48 h
SR = tested on: SR
A498 = tested on: A498
K562 = tested on: K562
U-251 = tested on: U-251
COLO 205 = tested on: COLO 205
SNB-19 = tested on: SNB-19
LOX IMVI = tested on: LOX IMVI
EKVX = tested on: EKVX
MDA-MB-231 = tested on: MDA-MB-231
Hs-578T = tested on: Hs-578T
NCI-H522 = tested on: NCI-H522
Malme-3M = tested on: Malme-3M
MDA-N = tested on: MDA-N
MOLT-4 = tested on: MOLT-4
HT-29 = tested on: HT-29
NCI-H23 = tested on: NCI-H23
SW-620 = tested on: SW-620
HOP-62 = tested on: HOP-62
OVCAR-5 = tested on: OVCAR-5
HOP-92 = tested on: HOP-92
A549 = tested on: A549
HCT-15 = tested on: HCT-15
OVCAR-8 = tested on: OVCAR-8
HCC 2998 = tested on: HCC 2998
SK-MEL-2 = tested on: SK-MEL-2
SNB-75 = tested on: SNB-75
CCRF-CEM = tested on: CCRF-CEM
SF-295 = tested on: SF-295
IGROV-1 = tested on: IGROV-1
UO-31 = tested on: UO-31
MCF7 = tested on: MCF7
ACHN = tested on: ACHN
NCI-H226 = tested on: NCI-H226
SF-539 = tested on: SF-539
HL-60 = tested on: HL-60
HCT-116 = tested on: HCT-116
786-0 = tested on: 786-0
NCI/ADR-RES = tested on: NCI/ADR-RES
SF-268 = tested on: SF-268
PC-3 = tested on: PC-3
OVCAR-4 = tested on: OVCAR-4
SK-MEL-5 = tested on: SK-MEL-5
UACC-62 = tested on: UACC-62
TK-10 = tested on: TK-10
RPMI-8226 = tested on: RPMI-8226
KM12 = tested on: KM12
OVCAR-3 = tested on: OVCAR-3
SN12C = tested on: SN12C
T47D = tested on: T47D
SK-OV-3 = tested on: SK-OV-3
NCI-H460 = tested on: NCI-H460
DU-145 = tested on: DU-145
RXF 393 = tested on: RXF 393
SK-MEL-28 = tested on: SK-MEL-28
MDA-MB-435 = tested on: MDA-MB-435
M14 = tested on: M14
UACC-257 = tested on: UACC-257
CAKI-1 = tested on: CAKI-1
BT-549 = tested on: BT-549

In the case of `CC1(C)N=C(/C=N/O)C(C)(C)N1O`, the GI50 (SR) is reported as > 100 µM (inactive), the GI50 (A498) is reported as > 100 µM (inactive) and the GI50 (K562) is reported as > 100 µM (inactive). For the same molecule, the GI50 (U-251) was > 100 µM (inactive), the GI50 (COLO 205) was > 100 µM (inactive) and the GI50 (SNB-19) was 87.3 µM (inactive). For the same molecule, the GI50 (LOX IMVI) was > 100 µM (inactive), the GI50 (EKVX) was > 100 µM (inactive) and the GI50 (MDA-MB-231) was > 100 µM (inactive). The GI50 (Hs-578T) was > 100 µM (inactive), the GI50 (NCI-H522) was > 100 µM (inactive) and the GI50 (Malme-3M) was > 100 µM (inactive). For the same molecule, the GI50 (MDA-N) was > 100 µM (inactive), the GI50 (MOLT-4) was > 100 µM (inactive) and the GI50 (HT-29) was > 100 µM (inactive). The GI50 (NCI-H23) was > 100 µM (inactive), the GI50 (SW-620) was > 100 µM (inactive) and the GI50 (HOP-62) was > 100 µM (inactive). For the same molecule, the GI50 (OVCAR-5) was > 100 µM (inactive), the GI50 (HOP-92) was > 100 µM (inactive) and the GI50 (A549) was > 100 µM (inactive). The GI50 (HCT-15) was > 100 µM, the GI50 (OVCAR-8) was > 100 µM (inactive) and the GI50 (HCC 2998) was > 100 µM (inactive). The GI50 (SK-MEL-2) was > 100 µM (inactive), the GI50 (SNB-75) was > 100 µM (inactive) and the GI50 (CCRF-CEM) was > 100 µM (inactive). The GI50 (SF-295) was > 100 µM (inactive), the GI50 (IGROV-1) was > 100 µM (inactive) and the GI50 (UO-31) was 81.3 µM (inactive). The GI50 (MCF7) was > 100 µM (inactive), the GI50 (ACHN) was > 100 µM (inactive) and the GI50 (NCI-H226) was > 100 µM (inactive). The GI50 (SF-539) was > 100 µM (inactive), the GI50 (HL-60) was > 100 µM (inactive) and the GI50 (HCT-116) was > 100 µM (inactive). For the same molecule, the GI50 (786-0) was > 100 µM (inactive), the GI50 (NCI/ADR-RES) was > 100 µM (inactive) and the GI50 (SF-268) was > 100 µM (inactive). For the same molecule, the GI50 (PC-3) was > 100 µM (inactive), the GI50 (OVCAR-4) was > 100 µM (inactive) and the GI50 (SK-MEL-5) was > 100 µM (inactive). For the same molecule, the GI50 (UACC-62) was > 100 µM (inactive), the GI50 (TK-10) was > 100 µM (inactive) and the GI50 (RPMI-8226) was > 100 µM (inactive). For the same molecule, the GI50 (KM12) was > 100 µM (inactive), the GI50 (OVCAR-3) was > 100 µM (inactive) and the GI50 (SN12C) was > 100 µM (inactive). For the same molecule, the GI50 (T47D) was > 100 µM (inactive), the GI50 (SK-OV-3) was > 100 µM (inactive) and the GI50 (NCI-H460) was > 100 µM (inactive). The GI50 (DU-145) was > 100 µM (inactive), the GI50 (RXF 393) was > 100 µM (inactive) and the GI50 (SK-MEL-28) was > 100 µM (inactive). For the same molecule, the GI50 (MDA-MB-435) was > 100 µM (inactive) and the GI50 (M14) was > 100 µM (inactive).
With `CC1=NN(c2cccc(Cl)c2)C(=N/c2nc3ccccc3s2)/C1=C\c1cccs1` the GI50 (SR) was 19.5 µM (inactive), the GI50 (A498) was 28.8 µM (inactive) and the GI50 (K562) was 32.7 µM (inactive). For the same molecule, the GI50 (U-251) was 24 µM (inactive), the GI50 (UACC-257) was 37.4 µM (inactive) and the GI50 (LOX IMVI) was 40.7 µM (inactive). For the same molecule, the GI50 (EKVX) was 24.1 µM (inactive), the GI50 (MDA-MB-231) was 38.9 µM (inactive) and the GI50 (Hs-578T) was 26.1 µM (inactive). For the same molecule, the GI50 (NCI-H522) was 27.9 µM (inactive), the GI50 (MDA-N) was 73.8 µM (inactive) and the GI50 (MOLT-4) was 26.8 µM (inactive). For the same molecule, the GI50 (HT-29) was 23.4 µM (inactive), the GI50 (NCI-H23) was 22.5 µM (inactive) and the GI50 (SW-620) was 54.2 µM (inactive). For the same molecule, the GI50 (HOP-62) was 19.5 µM (inactive), the GI50 (OVCAR-5) was > 100 µM (inactive) and the GI50 (HOP-92) was 32.4 µM (inactive). For the same molecule, the GI50 (HCT-15) was 32.8 µM, the GI50 (OVCAR-8) was 48.3 µM (inactive) and the GI50 (HCC 2998) was 35 µM (inactive). The GI50 (SK-MEL-2) was 25.9 µM (inactive), the GI50 (CAKI-1) was 52.7 µM (inactive) and the GI50 (SNB-75) was 28 µM (inactive). The GI50 (CCRF-CEM) was 19.6 µM (inactive), the GI50 (SF-295) was 25.3 µM (inactive) and the GI50 (IGROV-1) was 36 µM (inactive). For the same molecule, the GI50 (UO-31) was 60.8 µM (inactive), the GI50 (MCF7) was 33.9 µM (inactive) and the GI50 (ACHN) was 39 µM (inactive). The GI50 (NCI-H226) was 36.4 µM (inactive), the GI50 (SF-539) was 42 µM (inactive) and the GI50 (HL-60) was 14.3 µM (inactive). The GI50 (HCT-116) was 44.8 µM (inactive), the GI50 (786-0) was 87.3 µM (inactive) and the GI50 (NCI/ADR-RES) was 20.9 µM (inactive). For the same molecule, the GI50 (SF-268) was 33.2 µM (inactive), the GI50 (PC-3) was 32.1 µM (inactive) and the GI50 (OVCAR-4) was 35.6 µM (inactive). The GI50 (SK-MEL-5) was 28.1 µM (inactive), the GI50 (TK-10) was 45.7 µM (inactive) and the GI50 (RPMI-8226) was 13.4 µM (inactive). The GI50 (KM12) was 43.8 µM (inactive), the GI50 (OVCAR-3) was 13 µM (inactive) and the GI50 (T47D) was 39.4 µM (inactive). The GI50 (SK-OV-3) was 25.9 µM (inactive), the GI50 (NCI-H460) was 35.6 µM (inactive) and the GI50 (DU-145) was 44.4 µM (inactive). The GI50 (RXF 393) was 51.3 µM (inactive), the GI50 (SK-MEL-28) was 36.2 µM (inactive) and the GI50 (MDA-MB-435) was 55.6 µM (inactive). The GI50 (M14) was 70.1 µM (inactive).
In the case of `C=CN(C=C)C(=O)Cn1cc(-c2ccccc2)nn1`, the GI50 (SR) is reported as > 100 µM (inactive), the GI50 (K562) is reported as > 100 µM (inactive) and the GI50 (U-251) is reported as > 100 µM (inactive). The GI50 (COLO 205) was > 100 µM (inactive), the GI50 (SNB-19) was > 100 µM (inactive) and the GI50 (UACC-257) was > 100 µM (inactive). The GI50 (LOX IMVI) was > 100 µM (inactive), the GI50 (EKVX) was > 100 µM (inactive) and the GI50 (MDA-MB-231) was > 100 µM (inactive). The GI50 (NCI-H522) was > 100 µM (inactive), the GI50 (Malme-3M) was > 100 µM (inactive) and the GI50 (MOLT-4) was > 100 µM (inactive). For the same molecule, the GI50 (HT-29) was > 100 µM (inactive), the GI50 (NCI-H23) was > 100 µM (inactive) and the GI50 (SW-620) was > 100 µM (inactive). For the same molecule, the GI50 (HOP-62) was > 100 µM (inactive), the GI50 (OVCAR-5) was > 100 µM (inactive) and the GI50 (HOP-92) was > 100 µM (inactive). The GI50 (A549) was > 100 µM (inactive), the GI50 (HCT-15) was > 100 µM and the GI50 (OVCAR-8) was > 100 µM (inactive). For the same molecule, the GI50 (HCC 2998) was > 100 µM (inactive), the GI50 (SK-MEL-2) was > 100 µM (inactive) and the GI50 (CAKI-1) was > 100 µM (inactive). The GI50 (SNB-75) was > 100 µM (inactive), the GI50 (CCRF-CEM) was > 100 µM (inactive) and the GI50 (SF-295) was > 100 µM (inactive). The GI50 (IGROV-1) was > 100 µM (inactive), the GI50 (MCF7) was > 100 µM (inactive) and the GI50 (ACHN) was > 100 µM (inactive). For the same molecule, the GI50 (SF-539) was > 100 µM (inactive), the GI50 (BT-549) was > 100 µM (inactive) and the GI50 (HL-60) was > 100 µM (inactive). For the same molecule, the GI50 (HCT-116) was > 100 µM (inactive), the GI50 (786-0) was > 100 µM (inactive) and the GI50 (NCI/ADR-RES) was > 100 µM (inactive). The GI50 (SF-268) was > 100 µM (inactive), the GI50 (PC-3) was > 100 µM (inactive) and the GI50 (OVCAR-4) was 31.1 µM (inactive). The GI50 (SK-MEL-5) was > 100 µM (inactive), the GI50 (TK-10) was > 100 µM (inactive) and the GI50 (RPMI-8226) was > 100 µM (inactive). For the same molecule, the GI50 (KM12) was > 100 µM (inactive), the GI50 (SN12C) was > 100 µM (inactive) and the GI50 (NCI-H460) was > 100 µM (inactive). For the same molecule, the GI50 (DU-145) was > 100 µM (inactive), the GI50 (SK-MEL-28) was > 100 µM (inactive) and the GI50 (MDA-MB-435) was > 100 µM (inactive). For the same molecule, the GI50 (M14) was > 100 µM (inactive).
